{
  "source": "patent US20220332737A1",
  "about": "“CARBOCYCLIC NUCLEOSIDE ANALOGUE” (Ludwig-Maximilians-Universität München, priority 2019, published 2022)",
  "key": {"[1]": {"assay": "Test for hydrolytic stability in KH2PO4 buffer (HPLC)", "type": "physicochemical", "conditions": "for hydrolytic stability / degradation: aqueous KH2PO4 buffer 100 mM, pH 7.4, 5.5 and 8.5 (all tested pH values), 100 mM compound, r.t.", "protocol": "Both nucleosides were dissolved in aqueous KH2PO4 buffer (100 mM, pH=7.4, 5.5 and 8.5) in 100 mM concentration. The solutions were immediately analysed via HPLC (t=0 h) with subsequent HPLC analyses every 1.5 h or at indicated time points. As stationary phase an EC 250/4 NUCLEOSIL 120-3 C18 (Macherey-Nagel) chromatography column was used. The mobile phase consisted of water (buffer A) and acetonitrile (buffer B) at a flow-rate of 0.5 mL/min as follows: 0→25 min, 0→5% buffer B; 25 min→28 min, 5%→80%; 28 min→38 min, 80%; 38 min→43 min 80%→0%; 43 min→45 min, 0%.\nSince one treatment cycle for AzadC goes over four weeks we decided to measure the stability at a time point related to a half cycle (14 d). NMR spectra were measured after keeping the solutions at r.t."}, "[2]": {"system": "mouse embryonic stem cells (mESC)", "conditions": "from reference [19], cited from earlier work"}, "[3]": {"assay": "HPLC stability test of a neutral solution in pure water (FIG. 5)", "type": "physicochemical", "conditions": "100 mM solutions in pure water, t=0 h to 6 d", "protocol": "FIG. 5. HPLC investigation of a neutral solution of Decitabine 1 (left) versus the carbacyclic compound cAzaC 20 (right). 100 mM solutions of the compounds were kept in pure water and tested at t=0 h, 1.5 h, 3 h, 4.5 h, 6 h, 24 h, 6 d."}, "[4]": {"system": "mouse embryonic stem cells (mESC)", "assay": "Treatment of primed mESC, UHPLC-MS2 quantification of genome incorporation and mdC/hmdC levels", "type": "cell-based", "conditions": "for level incorporated into the genome: primed mESC", "protocol": "Feeder independent wt J1 (strain 129S4/SvJae) cells were cultured in the presence of serum and LIF as previously described. They were routinely maintained on gelatinized plates in 2i/L medium. For priming experiments, 2i cultures were passaged when applicable in DMEM supplemented with FBS and LIF as above but lacking the inhibitors. For drug treatment, cells were moved into the primed state by removing 2i from the medium. Cells were incubated 2 d in DMEM supplemented with FBS and LIF in 6-well plates (VWR). After splitting, 2×10^5 cells were transferred into a 6-well plate culture dish and supplemented with either 1 μM (in 0.01% DMSO) or 5 μM cAzadC (in 0.05% DMSO) and treated for 72 h. After removal of the medium and washing the cells with DPBS, they were directly lysed with RLT^+ buffer as described in a previous publication.\nThe gDNA was isolated as described previously. The gDNA was directly subjected to a total enzymatic digest and analyzed using UHPLC-MS^2 as described in a previous publication. The external calibration curve was generated by serially diluting pure cAzadC [20 pmol, 10 pmol, 5 pmol, 2.5 pmol, 1.25 pmol, 0.625 pmol, 0.3125 pmol] and measuring it in technical triplicates prior to each measurement. Linear regression was done by OriginPro 2016G.\nWe investigated if the disarming effect described in Example 3 would influence the biological functions. We used for this purpose mouse embryonic stem cells (mESC) that were primed in serum/Lif as a model system, since mdC levels increase from naïve to primed state. We added cAzadC 1 in two different concentrations (1 μM and 5 μM) to mESC that have been primed for 48 h and allowed the cells to further proliferate under priming conditions in the presence of cAzadC 1 for additional 72 h. After the 72 h, we harvested the cells, isolated the DNA and digested the DNA down to the nucleoside level using our described protocol.\nThe levels of mdC were finally precisely quantified using isotope dilution UHPLC-MS^2. To this end, isotopically labelled standards of the nucleosides were spiked-in for exact quantification. In addition to mdC, we quantified the levels of 5-hydroxymethyl-2′-deoxycytidine (hmdC), which is formed from mdC by the action of TET enzymes. The absolute levels of hmdC are in mESC more than ten times lower than the mdC levels. The consequence is that even after a substantial reduction of mdC, there should be sufficient mdC to keep the hmdC levels constant. The question if and by how much the hmdC level is affected can therefore inform us about how epigenetic reprogramming is organized.\nParallel to the quantification of mdC and hmdC we also quantified to which extend cAzadC 1 itself was incorporated into the genome of the mESC. Detection of AzadC in the genome of treated cells is only possible after treatment of the DNA with NaBH4. Application of NaBH4 reduces the C(5)=C(6) double bond, which stabilizes the compound so that its quantification becomes possible. To our delight, we noted that the stability of cAzadC 1 allowed its quantification without this pre-treatment. We also noted that the applied enzymatic digestion protocol allowed to digest genomic DNA (gDNA) even in the presence of large amounts of cAzadC 1. Taken together, quantification of cAzadC 1 by UHPLC-MS^2 using an external calibration curve was possible in parallel to quantification of canonical and epigenetic bases."}},
  "note": "Entries after “also recorded” stand apart in the source; their conditions may differ. Read-outs that look alike come from different tables or passages of the source.",
  "data": [
    {"compound": "Nc1ncn([C@H]2C[C@H](O)[C@@H](CO)O2)c(=O)n1", "note": "[AzadC, 5-Aza-2′-deoxycytidine]", "values": [
      {"measurement": "hydrolytic stability / degradation", "setting": "[1]; 14 d", "result": "strongly degraded; also recorded: severe hydrolytic decomposition"},
      {"measurement": "intact compound remaining", "setting": "[1]; pH=5.5, 14 d", "result": "only hardly detectable"},
      {"measurement": "intact compound remaining", "setting": "[1]; pH=8.5, 14 d", "result": "only hardly detectable"},
      {"measurement": "intact compound remaining / degradation", "setting": "[1]; physiological pH (7.4), 14 d", "result": "still present after 14 d but the level of degradation is dramatic"},
      {"measurement": "decrease of mdC to % of the original value", "setting": "[2]; 24 h, 1 μM", "result": 50, "unit": "%"},
      {"measurement": "level incorporated into the genome", "setting": "[2]; applied with 1 μM", "result": "1.2×10^−3 AzadC per dN"}
    ]},
    {"compound": "Nc1ncn([C@@H]2C[C@H](CO)[C@@H](O)[C@H]2O)c(=O)n1", "note": "[cAzaC 20, 4-Amino-1-[(1′R,2′S,3′R,4′R)-2′,3′-bishydroxy-4′-(hydroxymethyl) -cyclopentyl]-1H-[1,3,5]-triazin-2-one]", "values": [
      {"measurement": "stability compared with decitabine", "setting": "[3]", "result": "much more stable"}
    ]},
    {"compound": "Nc1ncn([C@@H]2C[C@H](CO)[C@@H](O)C2)c(=O)n1", "note": "[cAzadC 1, 4-Amino-1-[(1′R,3′S,4′R)-3′-hydroxy-4′-(hydroxymethyl)-cyclopentyl]-1H -[1,3,5]triazin-2-one]", "values": [
      {"measurement": "hydrolytic stability / degradation", "setting": "[1]; 14 d", "result": "no degradation; also recorded: stable at all three pH values"},
      {"measurement": "hmdC levels reduced to", "setting": "[4]; 1 μM, 72 h", "result": "about 50%"},
      {"measurement": "nucleotides integrated into the genome", "setting": "[4]; 1 μM, 72 h", "result": "~3", "unit": "million"},
      {"measurement": "level incorporated into the genome", "setting": "[4]; 1 μM, 72 h", "result": "5×10^−4 cAzadC per dN"},
      {"measurement": "incorporated level relative to the AzadC level", "setting": "[4]; 1 μM, compared with AzadC at 1 μM [19]", "result": "about a third"},
      {"measurement": "increase of incorporated level, 5 μM versus 1 μM", "setting": "[4]; 5 μM versus 1 μM", "result": 3, "unit": "fold"},
      {"measurement": "nucleotides integrated per genome", "setting": "[4]; 5 μM, 72 h", "result": "more than 8 million"},
      {"measurement": "hmdC detection", "setting": "[4]; 5 μM, 72 h, 0.5 μg of genomic DNA", "result": "unable to detect hmdC above background levels"},
      {"measurement": "level incorporated into the genome", "setting": "[4]; 5 μM, 72 h", "result": "1.7×10^−3 cAzadC per dN"},
      {"measurement": "mdC levels, of the original value", "setting": "[4]; 72 h at 5 µM concentration in the medium", "result": "about 50%"},
      {"measurement": "reduction of the mdC values", "setting": "[4]; 72 h at 1 M cAzadC in the medium", "result": "~30", "unit": "%"},
      {"measurement": "mdC level relative to the control levels", "setting": "[4]; summary, concentration not given", "result": 70, "unit": "%"}
    ]}
  ]
}
